Measurements: patent US4409210A, “Antibiotic compound” (priority 1982, dated 1983)
Values after ≈ are worked out from the molar mass of the structure shown. *1 amine or outer side, *2 acyl side, *3 side chain or, on linkers, in order; H or OH if unused. Where a SMILES comes first, the peptide text is derived from it. Bridges are numbered along the chain shown (N, C = ends). [ ]: non-standard residue; d: D form. ξ: configuration not given here. X2 = CCCCCCCCCCCC(CC(=O)[*:1])O[*:2]; ξAsp(3ξ-OH) = NC(C(=O)O)C(O)C(=O)O; X1 = O=C(C1C(O)CCN1[*:1])[*:2]

Legend:
Type in all cases: cell-based
[1] = system: Propionibacterium acnes A21933; assay: MIC, serial two-fold dilution method (anaerobic); settings: Propionibacterium acnes A21933, GAM agar medium, inoculum 10^7-10^8; for MIC: Cutibacterium acnes, read-out: minimum inhibitory concentration (MIC)
[2] = system: Clostridium cylindrosporum A9562; assay: MIC, serial two-fold dilution method (anaerobic); settings: Clostridium cylindrosporum A9562, GAM agar medium, inoculum 10^7-10^8; for MIC: read-out: minimum inhibitory concentration (MIC)
[3] = system: Staphylococcus aureus A20394; assay: MIC, serial two-fold dilution method (aerobic); settings: Staphylococcus aureus A20394, Mueller-Hinton agar, inoculum 10^4; for MIC: read-out: minimum inhibitory concentration (MIC)
[4] = system: Bacteroides fragilis A22533; assay: MIC, serial two-fold dilution method (anaerobic); settings: Bacteroides fragilis A22533, GAM agar medium, inoculum 10^7-10^8; for MIC: read-out: minimum inhibitory concentration (MIC)
[5] = system: Streptococcus pyogenes S-23; assay: MIC, serial two-fold dilution method (aerobic); settings: Streptococcus pyogenes S-23; GC medium; inoculum 10^6 CFU/ml
[6] = system: Pseudomonas aeruginosa D-113; assay: MIC, serial two-fold dilution method (aerobic); settings: Pseudomonas aeruginosa D-113, Mueller-Hinton agar, inoculum 10^4; for MIC: D113, read-out: minimum inhibitory concentration (MIC)
[7] = system: Bacteroides ovatus A22400; assay: MIC, serial two-fold dilution method (anaerobic); settings: Bacteroides ovatus A22400, GAM agar medium, inoculum 10^7-10^8; for MIC: read-out: minimum inhibitory concentration (MIC)
[8] = system: Staphylococcus aureus A20701; assay: MIC, serial two-fold dilution method (aerobic); settings: Staphylococcus aureus A20701, Mueller-Hinton agar, inoculum 10^4; for MIC: read-out: minimum inhibitory concentration (MIC)
[9] = system: Staphylococcus aureus A9601; assay: MIC, serial two-fold dilution method (aerobic); settings: Staphylococcus aureus A9601, Mueller-Hinton agar, inoculum 10^4; for MIC: read-out: minimum inhibitory concentration (MIC)
[10] = system: Bacteroides fragilis A20928-1; assay: MIC, serial two-fold dilution method (anaerobic); settings: Bacteroides fragilis A20928-1, GAM agar medium, inoculum 10^7-10^8; for MIC: A209281, read-out: minimum inhibitory concentration (MIC)
[11] = system: Bacteroides fragilis A20929; assay: MIC, serial two-fold dilution method (anaerobic); settings: Bacteroides fragilis A20929, GAM agar medium, inoculum 10^7-10^8; for MIC: read-out: minimum inhibitory concentration (MIC)
[12] = system: Haemophilus influenzae A22481; assay: MIC, serial two-fold dilution method (aerobic); settings: Haemophilus influenzae A22481; GC medium; inoculum 10^6 CFU/ml
[13] = system: Klebsiella pneumoniae D-11; assay: MIC, serial two-fold dilution method (aerobic); settings: Klebsiella pneumoniae D-11, Mueller-Hinton agar, inoculum 10^4; for MIC: D11, read-out: minimum inhibitory concentration (MIC)
Proteus vulgaris A9436 = assay: MIC, serial two-fold dilution method (aerobic); settings: Proteus vulgaris A9436, Mueller-Hinton agar, inoculum 10^4; for MIC: read-out: minimum inhibitory concentration (MIC)
[14] = system: Bacillus subtilis ATCC 6633; assay: MIC, serial two-fold dilution method (aerobic); settings: Bacillus subtilis ATCC 6633, Mueller-Hinton agar, inoculum 10^4; for MIC: ATCC6633, read-out: minimum inhibitory concentration (MIC)
[15] = system: Staphylococcus aureus #193; assay: MIC, serial two-fold dilution method (aerobic); settings: Staphylococcus aureus #193, Mueller-Hinton agar, inoculum 10^4; for MIC: read-out: minimum inhibitory concentration (MIC)
[16] = system: Staphylococcus aureus BX-1633; assay: MIC, serial two-fold dilution method (aerobic); settings: Staphylococcus aureus BX-1633, Mueller-Hinton agar, inoculum 10^4; for MIC: BX1633, read-out: minimum inhibitory concentration (MIC)
[17] = system: Clostridium acidiurici A9560; assay: MIC, serial two-fold dilution method (anaerobic); settings: Clostridium acidiurici A9560, GAM agar medium, inoculum 10^7-10^8; for MIC: Gottschalkia acidurici, read-out: minimum inhibitory concentration (MIC)
Sarcina lutea PCI-1001 = assay: MIC, serial two-fold dilution method (aerobic); settings: Sarcina lutea PCI-1001, Mueller-Hinton agar, inoculum 10^4; for MIC: Micrococcus luteus, PCI1001, read-out: minimum inhibitory concentration (MIC)
[18] = system: Peptococcus magnas A21676; assay: MIC, serial two-fold dilution method (anaerobic); settings: Peptococcus magnas A21676, GAM agar medium, inoculum 10^7-10^8; for MIC: read-out: minimum inhibitory concentration (MIC)
[19] = system: Clostridium perfringens A9635; assay: microbe, parasite or virus in culture; settings: for MIC: Clostridium perfringens, A9635, read-out: minimum inhibitory concentration (MIC)
Micrococcus flavus D-12 = assay: MIC, serial two-fold dilution method (aerobic); settings: Micrococcus flavus D-12, Mueller-Hinton agar, inoculum 10^4; for MIC: D12, read-out: minimum inhibitory concentration (MIC)
[20] = system: Bacteroides fragilis A22695; assay: MIC, serial two-fold dilution method (anaerobic); settings: Bacteroides fragilis A22695, GAM agar medium, inoculum 10^7-10^8; for MIC: read-out: minimum inhibitory concentration (MIC)
Proteus mirabilis A9554 = assay: MIC, serial two-fold dilution method (aerobic); settings: Proteus mirabilis A9554, Mueller-Hinton agar, inoculum 10^4; for MIC: read-out: minimum inhibitory concentration (MIC)
[21] = system: Clostridium perfringens A22787; assay: microbe, parasite or virus in culture; settings: for MIC: Clostridium perfringens, A22787, read-out: minimum inhibitory concentration (MIC)
[22] = system: Staphylococcus aureus A9748; assay: MIC, serial two-fold dilution method (aerobic); settings: Staphylococcus aureus A9748, Mueller-Hinton agar, inoculum 10^4; for MIC: read-out: minimum inhibitory concentration (MIC)
[23] = system: Staphylococcus aureus A20239; assay: MIC, serial two-fold dilution method (aerobic); settings: Staphylococcus aureus A20239, Mueller-Hinton agar, inoculum 10^4; for MIC: read-out: minimum inhibitory concentration (MIC)
S. aureus 209P = assay: Antibiotic sensitivity, paper disc-agar diffusion method; set-up: key: S (sensitive); R (resistant); I (intermediate); settings: nutrient agar, 2 day's incubation at 28° C., Difco discs, amount/disc per antibiotic
E. coli NIHJ = assay: as above; set-up: key: S (sensitive); R (resistant); I (intermediate); settings: nutrient agar, 2 day's incubation at 28° C., Difco discs, amount/disc per antibiotic

`CCCCCCCCCCCC1CC(=O)N2CCCC2C(=O)NC(CO)C(=O)N2CCCC2C(=O)NC(CCCNC(=N)N)C(=O)NC(C(O)C(=O)O)C(=O)NC(CO)C(=O)N2CCC(O)C2C(=O)NC(C(O)C(=O)O)C(=O)O1` (stereo not drawn) [Bu-2517] (PSPR[ξAsp(3ξ-OH)]S[X1][ξAsp(3ξ-OH)]; linker N-C via X2; configuration not given here) was tested, and the “minimum inhibitory concentration (MIC)” value [1] was 1.6 µg/mL (≈ 1.42 µM), the “minimum inhibitory concentration (MIC)” value [2] was 1.6 µg/mL (≈ 1.42 µM) and the “minimum inhibitory concentration (MIC)” value [3] was 1.6 µg/mL (≈ 1.42 µM). For the same molecule, the “minimum inhibitory concentration (MIC)” value [4] was greater than 100 µg/mL, the “minimum inhibitory concentration (MIC)” value [5] was 1.6 µg/mL (≈ 1.42 µM) and the “minimum inhibitory concentration (MIC)” value [6] was greater than 100 µg/mL. For the same molecule, the “minimum inhibitory concentration (MIC)” value [7] was greater than 100 µg/mL, the “minimum inhibitory concentration (MIC)” value [8] was 1.6 µg/mL (≈ 1.42 µM) and the “minimum inhibitory concentration (MIC)” value [9] was 1.6 µg/mL (≈ 1.42 µM). For the same molecule, the “minimum inhibitory concentration (MIC)” value [10] was 25 µg/mL (≈ 22.2 µM), the “minimum inhibitory concentration (MIC)” value [11] was 3.1 µg/mL (≈ 2.75 µM) and the “minimum inhibitory concentration (MIC)” value [12] was greater than 100 µg/mL. The “minimum inhibitory concentration (MIC)” value [13] was greater than 100 µg/mL, the “minimum inhibitory concentration (MIC)” value (Proteus vulgaris A9436) was greater than 100 µg/mL and the “minimum inhibitory concentration (MIC)” value [14] was 0.8 µg/mL (≈ 0.71 µM). For the same molecule, the “minimum inhibitory concentration (MIC)” value [15] was 1.6 µg/mL (≈ 1.42 µM), the “minimum inhibitory concentration (MIC)” value [16] was 1.6 µg/mL (≈ 1.42 µM) and the “minimum inhibitory concentration (MIC)” value [17] was 1.6 µg/mL (≈ 1.42 µM). For the same molecule, the “minimum inhibitory concentration (MIC)” value (Sarcina lutea PCI-1001) was less than 0.05 µg/mL, the “minimum inhibitory concentration (MIC)” value [18] was 1.6 µg/mL (≈ 1.42 µM) and the “minimum inhibitory concentration (MIC)” value ([19]; Clostridium perfringens A9635, GAM agar medium, inoculum 10^7-10^8) was 1.6 µg/mL (≈ 1.42 µM). For the same molecule, the “minimum inhibitory concentration (MIC)” value (Micrococcus flavus D-12) was less than 0.05 µg/mL, the “minimum inhibitory concentration (MIC)” value [20] was greater than 100 µg/mL and the “minimum inhibitory concentration (MIC)” value (Proteus mirabilis A9554) was greater than 100 µg/mL. For the same molecule, the “minimum inhibitory concentration (MIC)” value ([21]; Clostridium perfringens A22787, GAM agar medium, inoculum 10^7-10^8) was 3.1 µg/mL (≈ 2.75 µM), the “minimum inhibitory concentration (MIC)” value [22] was 1.6 µg/mL (≈ 1.42 µM) and the “minimum inhibitory concentration (MIC)” value [23] was 1.6 µg/mL (≈ 1.42 µM).
`O=C(N[C@H](CO)[C@H](O)c1ccc([N+](=O)[O-])cc1)C(Cl)Cl` [Chloramphenicol] gave an MIC [1] of 3.1 µg/mL (≈ 9.59 µM), an MIC [2] of 6.3 µg/mL (≈ 19.5 µM) and an MIC [3] of 50 µg/mL (≈ 155 µM). The MIC [4] was 3.1 µg/mL (≈ 9.59 µM), the MIC [6] was greater than 100 µg/mL and the MIC [7] was 1.6 µg/mL (≈ 4.95 µM). For the same molecule, the MIC [8] was 50 µg/mL (≈ 155 µM), the MIC [9] was 6.3 µg/mL (≈ 19.5 µM) and the MIC [10] was 3.1 µg/mL (≈ 9.59 µM). The MIC [11] was 3.1 µg/mL (≈ 9.59 µM), the “Sensitivity S. aureus 209P” value (S. aureus 209P) was “S” and the MIC [13] was 1.6 µg/mL (≈ 4.95 µM). For the same molecule, the MIC (Proteus vulgaris A9436) was 3.1 µg/mL (≈ 9.59 µM), the MIC [14] was 3.1 µg/mL (≈ 9.59 µM) and the MIC [15] was 3.1 µg/mL (≈ 9.59 µM). For the same molecule, the MIC [16] was 6.3 µg/mL (≈ 19.5 µM), the MIC [17] was 6.3 µg/mL (≈ 19.5 µM) and the MIC (Sarcina lutea PCI-1001) was 1.6 µg/mL (≈ 4.95 µM). It also gave an MIC [18] of 1.6 µg/mL (≈ 4.95 µM), an MIC [19] of 3.1 µg/mL (≈ 9.59 µM) and an MIC (Micrococcus flavus D-12) of 1.6 µg/mL (≈ 4.95 µM). For the same molecule, the MIC [20] was 3.1 µg/mL (≈ 9.59 µM), the MIC (Proteus mirabilis A9554) was 12.5 µg/mL (≈ 38.7 µM) and the “Sensitivity E. coli NIHJ” value (E. coli NIHJ) was “S”. The MIC [21] was 6.3 µg/mL (≈ 19.5 µM), the MIC [22] was 6.3 µg/mL (≈ 19.5 µM) and the MIC [23] was 6.3 µg/mL (≈ 19.5 µM).
For `CC[C@H]1OC(=O)[C@H](C)[C@@H](O[C@H]2C[C@@](C)(OC)[C@@H](O)[C@H](C)O2)[C@H](C)[C@@H](O[C@@H]2O[C@H](C)C[C@H](N(C)C)[C@H]2O)[C@](C)(O)C[C@@H](C)C(=O)[C@H](C)[C@@H](O)[C@]1(C)O` [Erythromycin], the MIC [1] was 1.6 µg/mL (≈ 2.18 µM), the MIC [2] was 3.1 µg/mL (≈ 4.22 µM) and the MIC [3] was 0.2 µg/mL (≈ 0.273 µM). For the same molecule, the MIC [4] was 0.4 µg/mL (≈ 0.545 µM), the MIC [6] was 100 µg/mL (≈ 136 µM) and the MIC [7] was greater than 100 µg/mL. The MIC [8] was greater than 100 µg/mL, the MIC [9] was 0.4 µg/mL (≈ 0.545 µM) and the MIC [10] was 0.013 µg/mL (≈ 0.0177 µM). For the same molecule, the MIC [11] was 1.6 µg/mL (≈ 2.18 µM), the “Sensitivity S. aureus 209P” value (S. aureus 209P) was “S” and the MIC [13] was 100 µg/mL (≈ 136 µM). It also gave an MIC (Proteus vulgaris A9436) of 100 µg/mL (≈ 136 µM), an MIC [14] of less than 0.05 µg/mL and an MIC [15] of 0.4 µg/mL (≈ 0.545 µM). The MIC [16] was 0.2 µg/mL (≈ 0.273 µM), the MIC [17] was 1.6 µg/mL (≈ 2.18 µM) and the MIC (Sarcina lutea PCI-1001) was less than 0.05 µg/mL. For the same molecule, the MIC [18] was 0.8 µg/mL (≈ 1.09 µM), the MIC [19] was 0.8 µg/mL (≈ 1.09 µM) and the MIC (Micrococcus flavus D-12) was less than 0.05 µg/mL. For the same molecule, the MIC [20] was 3.1 µg/mL (≈ 4.22 µM), the MIC (Proteus mirabilis A9554) was greater than 100 µg/mL and the “Sensitivity E. coli NIHJ” value (E. coli NIHJ) was “R”. For the same molecule, the MIC [21] was greater than 100 µg/mL, the MIC [22] was 0.4 µg/mL (≈ 0.545 µM) and the MIC [23] was 12.5 µg/mL (≈ 17 µM).
